Measurements: PubChem BioAssay (NCI)
Values joined by “and” are separate entries in the source; they are usually repeats but may differ in a detail not shown here. Identical values can stand only once.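 Growth conditions: 96-well plates. Treatment: test compound, 48 hours, 5 concentrations. Analysis: linear interpolation between bracketing concentrations; unreached endpoints set to highest concentration. GI50 is the concentration that inhibits growth by half. The concentration for full growth arrest is given as TGI.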

Columns and labels:
Assay in all cases: NCI tumour cell line growth inhibition, 48 h
[1] = test system: MDA-N
[2] = test system: DMS 114 small cell lung
[3] = test system: DMS 273 small cell lung
[4] = test system: HOP-18 NSCLC
[5] = test system: KM20L2 colon
[6] = test system: M19-MEL melanoma
[7] = test system: RXF-631 renal
[8] = test system: SNB-78 CNS
[9] = test system: XF 498 CNS
[10] = test system: SN12K1 renal

Row | SMILES | TGI [1] | TGI [2] | TGI [3] [µM] | TGI [4] [µM] | TGI [5] [µM] | TGI [6] [µM] | TGI [7] [µM] | TGI [8] | TGI [9] [µM] | also measured
1 | CCc1[nH]nc(C(N)=O)c1N=NN(C)C | > 100 µM | – | – | – | – | – | – | – | – | –
2 | COc1ccccc1NC(=O)CC(=O)n1nc(C)c(N=Nc2ccccc2Cl)c1C | > 31.6 µM | > 100 µM | > 100 | > 100 | > 100 | > 100 | > 31.6 | 57.1 µM | > 100 | –
3 | CN(/N=C/c1ccccc1O)c1ccc2ccccc2n1 | > 100 µM | – | – | – | – | – | – | – | – | –
4 | Cc1ccc2[nH]c(O)c(N=Nc3ccccc3[N+](=O)[O-])c2c1 | > 100 µM | – | – | – | – | – | – | – | – | –
5 | O=C(O)CN1C(=O)CN=C(c2ccccn2)c2cc(Cl)ccc21 | > 100 µM | – | – | – | – | – | – | – | – | –
6 | O=[N+]([O-])c1cc(I)cc(/C=N/NS(=O)(=O)c2ccc(Cl)cc2)c1O | – | – | 38.5 | 45.5 | > 100 | 56.9 | 45.3 | 70.9 µM | – | –
7 | O=C(O)CCSC(=O)Nc1cccc2ccccc12 | – | > 100 µM | > 100 | > 100 | > 100 | > 100 | > 100 | > 100 µM | > 100 | –
8 | CCc1cccc(C(C)CC)c1NC(=O)C(=O)Cc1nc2ccccc2o1 (stereo not given) | – | > 50 µM | > 50 | – | > 50 | > 50 | – | > 50 µM | > 50 | –
9 | CCN(CC)CCCNc1n[n+]([O-])c2ccccc2[n+]1[O-] | > 100 µM | – | – | – | – | – | – | – | – | –
10 | FC(F)(F)c1nc(SCc2ccc(Cl)cc2)n[nH]1 | > 100 µM | – | – | – | – | – | – | – | – | –
11 | CC(C)CCCCCCCCCCCCC(=O)NCC(=O)NC1C(C)OC(Nc2ncnc3nc[nH]c23)C(O)C1O (stereo not given) | – | 0.263 µM and 0.0506 µM | 0.000586 | – | 0.497 | 0.014 | 0.000583 | 0.00718 µM and 0.00618 µM | 0.000925 | GI50 [2]: 0.00161 µM and 0.0148 µM; GI50 [3]: 1.84e-05 µM; GI50 [5]: 5.75e-05 µM; GI50 [6]: 0.000861 µM; TGI [10]: 0.116 µM; GI50 [9]: 0.000129 µM
12 | CN(C)CCN(C)C(=O)c1cccc2cccc(C(=O)O)c12 | – | > 100 µM | > 100 | > 100 | > 100 | > 100 | > 100 | > 100 µM | > 100 | –
13 | O=C(C=Nc1ccccc1S)c1ccco1 | – | 31 µM | 31.7 | 37.1 | 34.7 | 27 | 25.7 | 32.7 µM | – | GI50 [7]: 7.22 µM
14 | COc1c(C)c(OC)c(C(=O)CC(C)C)c(OC)c1C | > 100 µM | – | – | – | – | – | – | – | – | –
15 | COc1ccc([Se][Se]c2ccc(OC)cc2OC)c(OC)c1 | – | 4.82 µM | 19.7 | 4.72 | – | 4.68 | 59.2 | 7.04 µM | 3.84 | –
16 | Cc1[nH]c2ccccc2c1C1=NO/C(=N\O)C(c2c(C)[nH]c3ccccc23)C1 (stereo not given) | – | > 100 µM | > 100 | > 100 | 50.5 | > 100 | > 100 | > 100 µM | > 100 | –
17 | N#CC1(N2CCCC2)CCC2(CC1)OCCO2 | – | > 100 µM | > 10 | – | > 100 | > 10 | – | > 100 µM | – | –
18 | C=CCOc1ccc(N)c([N+](=O)[O-])c1 | > 100 µM | – | – | – | – | – | – | – | – | –
19 | COc1ccc(-c2cc(=O)c3cc(C)c(C)c(C(=O)O)c3o2)cc1 | – | 45.6 µM | > 100 | – | > 100 | > 100 | > 100 | > 100 µM | > 100 | –
20 | C[C@]12CCc3nonc3C1CC[C@@H]1C2CC[C@@]2(C)C1CC[C@@H]2O (stereo not given in full) | – | > 100 µM | > 100 | > 100 | > 100 | > 100 | > 100 | > 100 µM | > 100 | –
21 | CCOC(=O)CNC(=O)OCc1ccccc1 | – | > 100 µM | > 100 | – | – | > 100 | > 100 | > 100 µM | > 100 | –
22 | NNc1nc2ccccc2o1 | > 100 µM | – | – | – | – | – | – | – | – | –

Row | SMILES | TGI [1] | TGI [2] | TGI [3] [µM] | TGI [4] [µM] | TGI [5] [µM] | TGI [6] [µM] | TGI [7] [µM] | TGI [8] | TGI [9] [µM] | also measured
23 | O=C1NC2(CCCC2)C2CCCCC12O (stereo not given) | – | > 100 µM | > 100 | > 100 | – | > 100 | > 100 | > 100 µM | > 100 | –
24 | Brc1ccc(C=NC23CC4CC(CC(C4)C2)C3)cc1 | – | > 100 µM | > 100 | > 100 | > 100 | > 100 | > 100 | > 100 µM | > 100 | –
25 | CC(=O)NCc1c(C(N)=O)ncn1Cc1ccccc1 | – | > 100 µM | > 100 | > 100 | > 100 | > 100 | > 100 | > 100 µM | > 100 | –
26 | [Co].[O-]c1cccnc1C=Nc1ccccc1.[OH3+] | – | > 100 µM | > 100 | – | > 100 | > 100 | – | > 100 µM | > 100 | GI50 [2]: > 100 µM; GI50 [3]: > 100 µM; GI50 [5]: > 100 µM; GI50 [6]: > 100 µM; GI50 [8]: > 100 µM; GI50 [9]: > 100 µM
27 | Cc1ccc(/C=N/NS(=O)(=O)c2ccccc2)cc1C | – | > 100 µM | > 100 | > 100 | > 100 | > 100 | – | > 100 µM | > 100 | –
28 | C1C[OH+]CCNCC[OH+]CC[OH+]CCN1.N.[Cl-].[Pt+4] | – | – | > 100 | > 100 | > 100 | – | – | – | – | GI50 [3]: 28.7 µM; GI50 [4]: 37.5 µM; GI50 [5]: 22.8 µM
29 | O=S(=O)(O)n1ccnc1 (tested in a mixture with another compound) | > 100 µM | – | – | – | – | – | – | – | – | –
30 | CCCCCCCC(=O)OCC1OC(n2cc(F)c(=O)[nH]c2=O)C(N)C(O)C1O (stereo not given) | – | > 100 µM | > 100 | > 100 | > 100 | > 100 | – | > 100 µM | – | –
31 | CCC[CH2][Sn]1([CH2]CCC)[O]CC[S]1 | – | 1.26 µM | 3.56 | 1.89 | 2.75 | 2.75 | 1.34 | 2.26 µM | 1.02 | GI50 [2]: 0.272 µM; GI50 [3]: 1.13 µM; GI50 [4]: 0.717 µM; GI50 [5]: 1.41 µM; GI50 [6]: 0.475 µM; GI50 [7]: 0.285 µM; GI50 [8]: 0.494 µM; GI50 [9]: 0.476 µM
32 | FC(F)(F)c1cc(NC(=S)N2c3ccccc3-n3cccc3C2c2cccnc2)cc(C(F)(F)F)c1 (stereo not given) | 32.5 µM | – | – | – | – | – | – | – | – | GI50 [1]: 11.6 µM
33 | CC[O-].CC[O-].O=C([CH-]C(=O)c1ccccc1)CCCCCCC(=O)[CH-]C(=O)c1ccccc1.[Ti+4] | – | – | > 100 | > 100 | > 100 | > 100 | – | > 100 µM | > 100 | GI50 [3]: > 100 µM; GI50 [4]: > 100 µM; GI50 [5]: > 100 µM; GI50 [6]: > 100 µM; GI50 [8]: > 100 µM; GI50 [9]: > 100 µM
34 | CN=C1CN=C(OP(=O)(N2CCOCC2)N2CCOCC2)c2cc(Cl)ccc2N1 | – | > 100 µM | > 100 | > 100 | > 100 | > 100 | > 100 | > 100 µM | > 100 | –
35 | CC(=O)[CH-]C(C)=O.CC(=O)[CH-]C(C)=O.[Cl-].[O]=[V] | – | > 100 µM | 39.7 | > 100 | – | – | – | – | 66 | GI50 [2]: 35.8 µM; GI50 [3]: 20.9 µM; GI50 [4]: > 100 µM; GI50 [9]: 17.8 µM
36 | CC1OC(CC(=O)O)Cc2c1c(O)c1c(O)cc(-c3cc(=O)c4c(=O)c5c(c(=O)c=4c3=O)CC(CC(=O)O)OC5C)c(O)c1c2O (stereo not given) | – | 40 µM | 47 | 45.7 | > 68 | 49 | – | > 73 µM | 34.5 | GI50 [1]: 29.1 µM
37 | OCCN(CCO)c1nc(N2CCCCC2)c2nc(N(CCO)CCO)nc(N3CCCCC3)c2n1 | > 100 µM | – | – | – | – | – | – | – | – | –
38 | CCOC(=O)c1c(-c2ccc(OC)c(O)c2)c(C#N)c(=S)n(C2OC(COC(C)=O)C(OC(C)=O)C(OC(C)=O)C2OC(C)=O)c1-c1ccccc1 (stereo not given) | 37.8 µM and > 100 µM | – | – | – | – | – | – | – | – | GI50 [1]: 16.8 µM and > 100 µM
39 | C[N+](C)(C)C1CC([N+](C)(C)C)C2c3ccccc3C21 (stereo not given) | – | > 100 µM | > 100 | – | > 100 | > 100 | > 100 | > 100 µM | > 100 | –
40 | O=S1(=O)c2cc(S(=O)(=O)n3ccnc3)ccc2NC2=NCCCN21 | – | 49.6 µM | – | > 100 | 41.7 | > 100 | – | – | – | –
41 | O=C1OC(c2ccc(Cl)cc2)=N/C1=C\c1ccccc1 | > 100 µM | – | – | – | – | – | – | – | – | –
42 | N#CC(C(=O)CCC(=O)Nc1cccc(C(F)(F)F)c1)c1ccccc1 (stereo not given) | – | > 100 µM | > 100 | – | > 100 | > 100 | – | > 100 µM | > 100 | –
43 | COc1ccccc1NC(=O)C1=C(C)NC(C)=C(C(=O)Nc2ccccc2OC)C1c1ccccc1Cl | – | > 100 µM | > 100 | > 100 | > 100 | > 100 | > 100 | – | > 100 | –
